In publication PMC4859819 (Molecular Pharmacology, 2016):

Legend:
Test in all cases: two-electrode voltage clamp, Xenopus oocytes
Type in all cases: cell-based
[1] = biological target: T1, GluN1/GluN2B receptor (rat GluN1-1a, mouse GluN2B) (Rattus norvegicus; Mus musculus, UniProt P35439+Q01097)
T1 construct: gene Grin1; full-length receptors from pcDNA3-based plasmids, Xenopus laevis oocytes, cDNA ratio 1:1; heterotetramer, usually two GluN1 and two GluN2
From the text: (§1) two-electrode voltage clamp, Xenopus oocytes on GluN1/GluN2B receptor (rat GluN1-1a, mouse GluN2B)

[2] = biological target: T2, GluN1/GluN2B receptor (rat GluN1-1a, mouse GluN2B) (Rattus norvegicus; Mus musculus, UniProt P35439+Q01097, P35439:L135H)
T2 construct: gene Grin1; full-length receptors from pcDNA3-based plasmids, Xenopus laevis oocytes, cDNA ratio 1:1; heterotetramer, usually two GluN1 and two GluN2
From the text: as §1

[3] = biological target: T3, GluN1/GluN2B receptor (rat GluN1-1a, mouse GluN2B) (Rattus norvegicus; Mus musculus, UniProt P35439+Q01097, P35439:L135W)
T3 construct: gene Grin1; full-length receptors from pcDNA3-based plasmids, Xenopus laevis oocytes, cDNA ratio 1:1; heterotetramer, usually two GluN1 and two GluN2
From the text: as §1

[4] = biological target: T4, GluN1/GluN2B receptor (rat GluN1-1a, mouse GluN2B) (Rattus norvegicus; Mus musculus, UniProt P35439+Q01097, P35439:Y109C)
T4 construct: gene Grin1; full-length receptors from pcDNA3-based plasmids, Xenopus laevis oocytes, cDNA ratio 1:1; heterotetramer, usually two GluN1 and two GluN2
From the text: as §1

[5] = biological target: T5, GluN1/GluN2B receptor (rat GluN1-1a, mouse GluN2B) (Rattus norvegicus; Mus musculus, UniProt P35439+Q01097, P35439:Y109S)
T5 construct: gene Grin1; full-length receptors from pcDNA3-based plasmids, Xenopus laevis oocytes, cDNA ratio 1:1; heterotetramer, usually two GluN1 and two GluN2
From the text: as §1

[6] = biological target: T6, GluN1/GluN2B receptor (rat GluN1-1a, mouse GluN2B) (Rattus norvegicus; Mus musculus, UniProt P35439+Q01097, Q01097:A135G)
T6 construct: gene Grin1; full-length receptors from pcDNA3-based plasmids, Xenopus laevis oocytes, cDNA ratio 1:1; heterotetramer, usually two GluN1 and two GluN2
From the text: as §1

[7] = biological target: T7, GluN1/GluN2B receptor (rat GluN1-1a, mouse GluN2B) (Rattus norvegicus; Mus musculus, UniProt P35439+Q01097, Q01097:A135P)
T7 construct: gene Grin1; full-length receptors from pcDNA3-based plasmids, Xenopus laevis oocytes, cDNA ratio 1:1; heterotetramer, usually two GluN1 and two GluN2
From the text: as §1

[8] = biological target: T8, GluN1/GluN2B receptor (rat GluN1-1a, mouse GluN2B) (Rattus norvegicus; Mus musculus, UniProt P35439+Q01097, Q01097:F114S)
T8 construct: gene Grin1; full-length receptors from pcDNA3-based plasmids, Xenopus laevis oocytes, cDNA ratio 1:1; heterotetramer, usually two GluN1 and two GluN2
From the text: as §1

[9] = biological target: T9, GluN1/GluN2B receptor (rat GluN1-1a, mouse GluN2B) (Rattus norvegicus; Mus musculus, UniProt P35439+Q01097, Q01097:F176A)
T9 construct: gene Grin1; full-length receptors from pcDNA3-based plasmids, Xenopus laevis oocytes, cDNA ratio 1:1; heterotetramer, usually two GluN1 and two GluN2
From the text: as §1

[10] = biological target: T10, GluN1/GluN2B receptor (rat GluN1-1a, mouse GluN2B) (Rattus norvegicus; Mus musculus, UniProt P35439+Q01097, Q01097:P177C)
T10 construct: gene Grin1; full-length receptors from pcDNA3-based plasmids, Xenopus laevis oocytes, cDNA ratio 1:1; heterotetramer, usually two GluN1 and two GluN2
From the text: as §1

[11] = biological target: T11, GluN1/GluN2B receptor (rat GluN1-1a, mouse GluN2B) (Rattus norvegicus; Mus musculus, UniProt P35439+Q01097, Q01097:Q110G)
T11 construct: gene Grin1; full-length receptors from pcDNA3-based plasmids, Xenopus laevis oocytes, cDNA ratio 1:1; heterotetramer, usually two GluN1 and two GluN2
From the text: as §1

T6 sequence (Q01097 27-1482 A135G, other chains not shown): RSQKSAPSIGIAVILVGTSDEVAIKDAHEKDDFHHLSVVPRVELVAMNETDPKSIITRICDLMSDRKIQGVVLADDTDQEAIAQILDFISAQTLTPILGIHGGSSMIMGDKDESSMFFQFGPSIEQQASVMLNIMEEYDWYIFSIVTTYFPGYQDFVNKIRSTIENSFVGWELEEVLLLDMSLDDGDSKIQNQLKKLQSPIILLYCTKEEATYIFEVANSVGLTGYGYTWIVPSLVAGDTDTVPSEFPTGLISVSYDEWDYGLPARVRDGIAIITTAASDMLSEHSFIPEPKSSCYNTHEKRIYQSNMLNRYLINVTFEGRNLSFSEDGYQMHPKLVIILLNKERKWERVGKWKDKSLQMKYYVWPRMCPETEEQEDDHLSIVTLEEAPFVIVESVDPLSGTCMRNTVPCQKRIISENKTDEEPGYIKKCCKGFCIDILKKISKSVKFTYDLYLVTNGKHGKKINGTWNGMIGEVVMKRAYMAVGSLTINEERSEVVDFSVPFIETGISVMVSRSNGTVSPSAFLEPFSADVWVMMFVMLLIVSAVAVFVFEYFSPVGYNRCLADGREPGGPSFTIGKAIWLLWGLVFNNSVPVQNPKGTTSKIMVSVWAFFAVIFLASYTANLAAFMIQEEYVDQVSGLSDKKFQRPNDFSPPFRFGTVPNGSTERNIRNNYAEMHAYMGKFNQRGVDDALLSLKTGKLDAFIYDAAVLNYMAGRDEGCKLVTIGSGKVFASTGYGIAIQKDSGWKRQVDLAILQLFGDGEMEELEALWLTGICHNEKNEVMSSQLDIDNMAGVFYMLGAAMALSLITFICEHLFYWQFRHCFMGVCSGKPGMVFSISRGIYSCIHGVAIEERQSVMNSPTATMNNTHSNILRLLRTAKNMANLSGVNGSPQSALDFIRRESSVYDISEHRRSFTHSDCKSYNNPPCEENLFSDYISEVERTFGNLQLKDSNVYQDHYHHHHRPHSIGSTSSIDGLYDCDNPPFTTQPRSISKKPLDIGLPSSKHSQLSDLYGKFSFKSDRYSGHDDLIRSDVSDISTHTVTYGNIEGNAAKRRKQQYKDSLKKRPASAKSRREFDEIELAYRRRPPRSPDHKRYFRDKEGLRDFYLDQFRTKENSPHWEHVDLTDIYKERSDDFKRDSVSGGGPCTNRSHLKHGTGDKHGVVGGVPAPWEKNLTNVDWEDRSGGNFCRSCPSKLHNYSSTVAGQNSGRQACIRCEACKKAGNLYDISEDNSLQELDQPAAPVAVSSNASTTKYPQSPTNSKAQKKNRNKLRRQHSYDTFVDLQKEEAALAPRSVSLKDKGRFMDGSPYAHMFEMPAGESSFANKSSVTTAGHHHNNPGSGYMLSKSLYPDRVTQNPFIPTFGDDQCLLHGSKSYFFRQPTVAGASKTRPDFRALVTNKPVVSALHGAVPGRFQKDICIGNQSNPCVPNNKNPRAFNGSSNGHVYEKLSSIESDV
T10 sequence (Q01097 27-1482 P177C, other chains not shown): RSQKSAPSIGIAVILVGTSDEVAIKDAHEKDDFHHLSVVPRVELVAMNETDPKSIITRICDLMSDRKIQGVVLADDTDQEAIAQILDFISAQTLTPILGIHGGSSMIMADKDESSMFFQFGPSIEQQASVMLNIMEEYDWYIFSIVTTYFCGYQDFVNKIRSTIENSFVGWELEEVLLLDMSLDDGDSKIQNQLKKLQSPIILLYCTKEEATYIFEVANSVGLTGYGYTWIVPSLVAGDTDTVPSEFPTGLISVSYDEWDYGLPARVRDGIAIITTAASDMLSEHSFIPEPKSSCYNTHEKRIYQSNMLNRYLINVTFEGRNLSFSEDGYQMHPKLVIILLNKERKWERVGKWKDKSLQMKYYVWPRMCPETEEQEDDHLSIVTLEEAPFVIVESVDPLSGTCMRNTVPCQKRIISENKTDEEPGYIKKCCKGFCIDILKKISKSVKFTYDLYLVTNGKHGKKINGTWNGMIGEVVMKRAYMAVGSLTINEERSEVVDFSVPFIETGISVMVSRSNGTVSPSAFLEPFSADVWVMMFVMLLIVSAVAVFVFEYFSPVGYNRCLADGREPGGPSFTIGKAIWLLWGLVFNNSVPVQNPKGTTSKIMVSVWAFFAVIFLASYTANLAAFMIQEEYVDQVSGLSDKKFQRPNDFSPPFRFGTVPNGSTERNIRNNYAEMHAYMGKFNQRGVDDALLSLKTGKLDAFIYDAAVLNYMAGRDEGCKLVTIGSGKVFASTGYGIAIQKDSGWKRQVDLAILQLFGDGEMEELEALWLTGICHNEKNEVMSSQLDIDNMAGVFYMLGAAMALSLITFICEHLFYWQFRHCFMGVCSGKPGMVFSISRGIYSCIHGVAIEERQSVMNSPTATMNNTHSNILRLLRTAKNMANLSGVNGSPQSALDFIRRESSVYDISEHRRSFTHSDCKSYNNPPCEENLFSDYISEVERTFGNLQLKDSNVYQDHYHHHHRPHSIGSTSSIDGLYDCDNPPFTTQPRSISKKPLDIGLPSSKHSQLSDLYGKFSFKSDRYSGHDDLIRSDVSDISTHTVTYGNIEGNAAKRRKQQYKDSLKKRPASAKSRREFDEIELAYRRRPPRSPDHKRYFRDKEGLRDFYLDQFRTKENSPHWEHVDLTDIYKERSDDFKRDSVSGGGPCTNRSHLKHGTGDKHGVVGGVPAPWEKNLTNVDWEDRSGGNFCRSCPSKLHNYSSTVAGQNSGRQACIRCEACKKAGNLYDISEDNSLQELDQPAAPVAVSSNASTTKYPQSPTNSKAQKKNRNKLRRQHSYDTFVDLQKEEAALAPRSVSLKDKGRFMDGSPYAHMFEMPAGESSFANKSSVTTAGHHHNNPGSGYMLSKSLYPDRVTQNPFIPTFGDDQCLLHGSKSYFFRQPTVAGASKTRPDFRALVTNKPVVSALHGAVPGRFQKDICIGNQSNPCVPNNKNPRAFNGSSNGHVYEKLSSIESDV
T11 sequence (Q01097 27-1482 Q110G, other chains not shown): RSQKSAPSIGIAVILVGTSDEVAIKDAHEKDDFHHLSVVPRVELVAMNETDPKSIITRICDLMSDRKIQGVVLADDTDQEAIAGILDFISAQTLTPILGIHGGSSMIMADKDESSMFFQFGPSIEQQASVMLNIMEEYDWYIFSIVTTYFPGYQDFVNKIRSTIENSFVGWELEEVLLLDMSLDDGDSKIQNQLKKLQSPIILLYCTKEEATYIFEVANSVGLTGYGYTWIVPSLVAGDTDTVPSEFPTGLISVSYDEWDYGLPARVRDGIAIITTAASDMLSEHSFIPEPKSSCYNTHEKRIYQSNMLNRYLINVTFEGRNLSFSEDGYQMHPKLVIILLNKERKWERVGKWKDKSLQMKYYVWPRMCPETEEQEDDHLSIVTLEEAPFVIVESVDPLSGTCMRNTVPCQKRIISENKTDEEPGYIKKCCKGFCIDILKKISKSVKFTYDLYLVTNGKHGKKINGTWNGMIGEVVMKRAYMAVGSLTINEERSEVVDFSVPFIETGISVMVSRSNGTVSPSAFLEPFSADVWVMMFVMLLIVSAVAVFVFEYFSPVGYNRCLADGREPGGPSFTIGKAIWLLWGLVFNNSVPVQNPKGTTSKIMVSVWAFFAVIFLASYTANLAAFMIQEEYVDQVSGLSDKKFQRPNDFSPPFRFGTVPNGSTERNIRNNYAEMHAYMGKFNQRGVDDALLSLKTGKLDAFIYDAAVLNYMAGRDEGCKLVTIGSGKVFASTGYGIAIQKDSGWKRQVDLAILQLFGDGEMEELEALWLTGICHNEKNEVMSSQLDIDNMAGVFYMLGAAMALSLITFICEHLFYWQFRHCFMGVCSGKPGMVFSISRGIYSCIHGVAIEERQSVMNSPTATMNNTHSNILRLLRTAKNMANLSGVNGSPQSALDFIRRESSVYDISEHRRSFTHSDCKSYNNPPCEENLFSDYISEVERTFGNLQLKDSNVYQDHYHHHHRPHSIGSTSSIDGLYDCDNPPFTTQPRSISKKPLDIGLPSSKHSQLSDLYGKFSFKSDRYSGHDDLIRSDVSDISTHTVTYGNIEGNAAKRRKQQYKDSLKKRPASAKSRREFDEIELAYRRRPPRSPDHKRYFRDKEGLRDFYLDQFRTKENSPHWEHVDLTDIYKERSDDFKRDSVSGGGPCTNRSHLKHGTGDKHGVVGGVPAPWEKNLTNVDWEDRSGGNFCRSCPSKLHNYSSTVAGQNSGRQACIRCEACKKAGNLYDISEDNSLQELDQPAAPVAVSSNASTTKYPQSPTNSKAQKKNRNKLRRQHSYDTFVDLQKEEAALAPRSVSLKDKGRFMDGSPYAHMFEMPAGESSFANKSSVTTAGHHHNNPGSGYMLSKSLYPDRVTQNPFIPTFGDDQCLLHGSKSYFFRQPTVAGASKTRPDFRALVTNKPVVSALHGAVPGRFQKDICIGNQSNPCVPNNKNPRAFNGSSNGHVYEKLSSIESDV

Compound: Cc1nccn1Cc1cc(-c2ccc(F)c(C(F)F)c2)cnn1 [compound 1, 5-(3-(difluoromethyl)-4-fluorophenyl)-3-((2-methyl-1H-imidazol-1-yl)methyl)pyridazine]
- IC50 [1]: 12 ± 0.2 nM
- IC50 [2]: 71 ± 7 nM
- IC50 [3]: 9 ± 1 nM
- IC50 [4]: 7300 ± 260 nM
- IC50 [5]: 9620 ± 700 nM
- IC50 [6]: 72 ± 7 nM
- IC50 [7]: 404 ± 15 nM
- IC50 [8]: 676 ± 10 nM
- IC50 [9]: 11400 ± 1000 nM
- IC50 [10]: 75 ± 12 nM
- IC50 [11]: 502 ± 14 nM
